Measured values as given in patent US20240116926A1, “HETEROAROMATIC COMPOUNDS” (AstraZeneca AB, priority 2022, published 2024).
Converted amounts (≈) assume the structure as drawn.

What was measured:
TEAD4(217-434) = TEAD4(217-434) (Homo sapiens (Human), UniProt Q15561); test: TEAD4 FRET; type: binding; conditions: depalmitoylated, biotinylated TEAD4(217-434), FAM labelled Probe A, 120 min at 25° C.
MCF7-Tead cell line = test: TEAD reporter assay; type: cell-based; conditions: MCF7-Tead cells, luciferase activity after 24 hours
[1] = test system: MCF7-Luciferase cell line; test: Control reporter (MCF7-Luciferase); type: cell-based; conditions: MCF7-Luciferase cells, luciferase activity after 24 hours
[2] = Solubility (thermodynamic, shake-flask); type: physicochemical; conditions: thermodynamic from solid; aqueous phosphate buffer (pH 7.4), 24 hours at 25° C.
In short: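 Shake-flask method starting from 10 mM DMSO stocks, which are dried before use. Residue equilibrated 24 h at 25° C. in aqueous phosphate buffer, pH 7.4. Dissolved fraction separated and quantified by UPLC/MS/MS, with QC samples in each run.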

[3] = Protein binding measurements in human plasma (Hu PPB); type: in vitro ADME; conditions: equilibrium dialysis for 18 hours, fraction unbound
Description: The automated equilibrium dialysis assay in human plasma uses the RED (Rapid Equilibrium Dialysis) Device and sample handling. The assay generally runs over two to three days including delivery of results. After dialysis for 18 hours, plasma and buffer samples are prepared for analysis by liquid chromatography and mass spectrometry. Samples are generally tested in singlicates and quantified by LC/MSMS by using a 7-point calibration curve in plasma. The compounds are pooled together in plasma pools up to 10 compounds. Three reference compounds are used in each run, Propranolol, Metoprolol and Warfarin. Warfarin is used as a control in each pool and Propranolol and Metoprolol are placed randomly in each run. An in-house Excel macro is used for preparation of files for the robot and the mass spectrometer and is also used for the calculations of fraction unbound (fu %) in plasma.

Sequence of TEAD4(217-434) (Q15561 217-434): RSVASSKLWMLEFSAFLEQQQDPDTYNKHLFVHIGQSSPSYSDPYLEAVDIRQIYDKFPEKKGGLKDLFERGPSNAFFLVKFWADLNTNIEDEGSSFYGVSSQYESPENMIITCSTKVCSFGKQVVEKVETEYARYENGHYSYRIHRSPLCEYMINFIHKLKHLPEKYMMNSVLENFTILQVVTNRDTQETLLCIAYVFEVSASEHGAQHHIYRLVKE

IC50 (TEAD4(217-434)) [nM]	IC50 (MCF7-Tead cell line) [nM]	IC50 [1] [nM]	solubility at 24 h [2] [µM]	Hu PPB (% free) [3] [% free]	Compound
42	17	20700	13 (≈ 5.75 µg/mL)	8.3	C=CC(=O)N1C[C@@H](Nc2nnc(-c3ccc(C(F)(F)F)cc3)c3ccccc23)C[C@@H]1CO [Example 47, 1-((2R,4S)-2-(hydroxymethyl)-4-((4-(4-(trifluoromethyl)phenyl)phthalazin-1-yl)amino)pyrrolidin-1-yl)prop-2-en-1-one]
26	26	16100	2.4 (≈ 1.06 µg/mL)	5.9	C=CC(=O)N1C[C@@H](Nc2nnc(-c3ccc(C(F)(F)F)cc3)c3ccccc23)C[C@H]1CO [Example 48, 1-((2S,4S)-2-(hydroxymethyl)-4-((4-(4-(trifluoromethyl)phenyl)phthalazin-1-yl)amino)pyrrolidin-1-yl)prop-2-en-1-one]
59	57	> 31700	165 (≈ 72.9 µg/mL)	9.8	C=CC(=O)N1C[C@H](CO)[C@H](Nc2nnc(-c3ccc(C(F)(F)F)cc3)c3ccccc23)C1 [Example 49, 1-((3S,4S)-3-(hydroxymethyl)-4-((4-(4-(trifluoromethyl)phenyl)phthalazin-1-yl)amino)pyrrolidin-1-yl)prop-2-en-1-one]
30	187	29000	< 1.6	5.4	C=CC(=O)N1CCC[C@H](Nc2nnc(-c3ccc(C(F)(F)F)cc3)c3ccccc23)C1 [Example 50, (S)-1-(3-((4-(4-(trifluoromethyl)phenyl)phthalazin-1-yl)amino)piperidin-1-yl)prop-2-en-1-one]
